According to patent US9521847B2, “Synergistic weed control from applications of pyridine carboxylic acid herbicides and synthetic auxin herbicides and/or auxin transport inhibitors” (Dow AgroSciences LLC, priority 2014, dated 2016):
Like-named read-outs stand apart in the source and are kept apart here.

Assays:
[1] = system: turnip (Brassica rapa, BRSRR); assay: Greenhouse postemergence trial, % visual injury; assay type: in vivo; conditions: BRSRR; naptalam 140 g ai/ha
[2] = system: Roundup Ready rape (Brassica napus, BRSNN-RR); assay: Greenhouse postemergence trial, % visual injury; assay type: in vivo; conditions: naptalam 140 g ai/ha
[3] = system: velvetleaf (Abutilon theophrasti, ABUTH); assay: Greenhouse postemergence trial, % visual injury; assay type: in vivo; conditions: Abutilon theophrasti, post-emergence, read-out: % visual injury, Obs
[4] = system: Chinese kale (Brassica alboglabra, BRSAG); assay: Greenhouse postemergence trial, % visual injury; assay type: in vivo; conditions: BRSAG; naptalam 140 g ai/ha
maize (ZEAMX) = assay: Greenhouse postemergence trial, crop phytotoxicity (% visual injury); conditions: ZEAMX
[5] = system: wild pansy (Viola tricolor, VIOTR); assay: Greenhouse postemergence trial, % visual injury; conditions: VIOTR
[6] = system: wild buckwheat (Polygonum convolvulus, POLCO); assay: Greenhouse postemergence trial, % visual injury; assay type: in vivo; conditions: for % visual injury, Obs: POLCO
[7] = system: rutabaga (Brassica napus var. napobrassica, BRSNA); assay: Greenhouse postemergence trial, % visual injury; assay type: in vivo; conditions: BRSNA; naptalam 140 g ai/ha
[8] = system: Canadian thistle (CIRAR, Cirsium arvense); assay: Greenhouse postemergence trial, % visual injury; conditions: CIRAR;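 further: plants sprayed at second to third true leaf stage, injury scored visually 20-22 d later against solvent-blank sprayed controls, 0 meaning no injury and 100 complete kill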
[9] = system: sunflower (Helianthus annus, HELAN); assay: Greenhouse postemergence trial, % visual injury; assay type: in vivo; conditions: HELAN; naptalam 140 g ai/ha
[10] = system: winter rape (BRSNW, Brassica napus); assay: Greenhouse postemergence trial, % visual injury; assay type: in vivo; conditions: for % visual injury, Obs: BRSNW
winter wheat (TRZAW) [11] = assay: Greenhouse postemergence trial, crop phytotoxicity (% visual injury); conditions: for % visual injury, Obs: TRZAW
common rice (ORYSA) = assay: as above; conditions: ORYSA
[12] = system: ivyleaf morningglory (Ipomoea hederacea, IPOHE); assay: Greenhouse postemergence trial, % visual injury; conditions: Ipomoea, post-emergence
[13] = system: poinsettia (Euphorbia heterophylla, EPHHL); assay: Greenhouse postemergence trial, % visual injury; conditions: Euphorbia heterophylla, post-emergence
[14] = system: soybean (Glycine max, GIAMA); assay: Greenhouse postemergence trial, % visual injury; assay type: in vivo; conditions: GLXMA, 140 g ae/ha
[15] = system: common chickweed (Stellaria media, STEME); assay: Greenhouse postemergence trial, % visual injury; assay type: in vivo; conditions: STEME
[16] = system: kochia (KCHSC, Kochia scoparia); assay: Greenhouse postemergence trial, % visual injury; assay type: in vivo
Method: Following the protocol in Example 1, compound 1 and compound 2 were combined with 2,4 D EHE (EC) and applied to kochia (KCHSC, Kochia scoparia) and the phytotoxicity of the herbicidal compositions was measured.
Following the protocol in Example 1, compound 1 (EC) and Compound 2 (SC) were combined with diflufenzopyr and applied to kochia (Kochia scoparia, KCHSC) and the phytotoxicity of the herbicidal composition was measured.

[17] = system: common lambsquarters (CHEAL, Chenopodium album L.); assay: Greenhouse postemergence trial, % visual injury; assay type: in vivo
[18] = system: grain sorghum (Sorghum vulgare, SORVU); assay: Greenhouse postemergence trial, % visual injury; assay type: in vivo; conditions: SORVU, 140 g ae/ha
[19] = system: pigweed (AMARE, Amaranthus retroflexus); assay: Greenhouse postemergence trial, % visual injury; assay type: in vivo; conditions: for % visual injury, Obs: AMARE
spring barley (HORVS) = assay: Greenhouse postemergence trial, crop phytotoxicity (% visual injury)
[20] = system: large crabgrass (Digitaria sanguinalis, DIGSA); assay: Greenhouse postemergence trial, % visual injury; assay type: in vivo; conditions: Digitaria sanguinalis, post-emergence; DIGSA; MCPA EHE 140 g ae/ha; read-out: % visual injury, Obs
[21] = system: nutsedge (Cyperus esculentus, CYPES); assay: Greenhouse postemergence trial, % visual injury; assay type: in vivo; conditions: CYPES
winter wheat (TRZAW) [22] = assay: Patio postemergence trial, crop phytotoxicity (% visual injury); assay type: in vivo, Triticum aestivum; conditions: 280 g ae/ha alone, 20-22 d
Method: (§1) The plants were grown for 7-36 days (d) on a fenced, open-air patio. Nutrients and water were added on a regular basis.
(§2) Temperatures and photoperiods were dependent on the natural weather conditions during the trials. Weather conditions during trials were conducive for plant growth and development.

[23] = system: kochia (KCHSC, Kochia scoparia); assay: Patio postemergence trial, % visual injury; assay type: in vivo; conditions: 280 g ae/ha alone, 20-22 d
Method: as §1, §2

[24] = system: spring rape (Brassica napus, BRSNN); assay: Greenhouse postemergence trial, % visual injury; conditions: Brassica napus, post-emergence, read-out: % visual injury, Obs
[25] = crop, 280 g ae/ha alone, 20-22 d

O=C(O)c1ccccc1C(=O)Nc1cccc2ccccc12 [naptalam, reference compound]
0%: % visual injury, Obs [1] | % visual injury, Obs [2] | pest or weed control at 140 g/ha [3] | % visual injury, Obs [4] | % visual injury, Obs (maize (ZEAMX); naptalam 140 g ai/ha) | % visual injury, Obs ([5]; naptalam 140 g ai/ha) | % visual injury, Obs ([6]; naptalam 140 g ai/ha) | % visual injury, Obs [7] | % visual injury, Obs ([8]; naptalam 140 g ai/ha) | % visual injury, Obs [9] | % visual injury, Obs ([10]; naptalam 140 g ai/ha) | % visual injury, Obs (winter wheat (TRZAW) [11]; naptalam 140 g ai/ha) | % visual injury, Obs (common rice (ORYSA); naptalam 140 g ai/ha)

O=C(O)c1c(Cl)ccc2cc(Cl)cnc12 [quinclorac, reference compound]
5%: % visual injury, Obs ([17]; CHEAL, 140 g ae/ha)
65%: pest or weed control at 140 g/ha ([12]; read-out: % visual injury, Obs, IPOHE, 140 g ae/ha)
10%: % visual injury, Obs ([15]; 140 g ae/ha) | % visual injury, Obs ([5]; 140 g ae/ha) | % visual injury, Obs ([19]; 140 g ae/ha)
0%: pest or weed control at 140 g/ha ([3]; ABUTH, 140 g ae/ha) | % visual injury, Obs (maize (ZEAMX); 140 g ae/ha) | pest or weed control at 140 g/ha ([16]; Bassia scoparia, post-emergence, KCHSC, 140 g ae/ha, read-out: % visual injury, Obs) | % visual injury, Obs [18] | % visual injury, Obs ([10]; 140 g ae/ha) | % visual injury, Obs (winter wheat (TRZAW) [11]; 140 g ae/ha) | % visual injury, Obs (common rice (ORYSA); 140 g ae/ha)
20%: pest or weed control at 140 g/ha ([13]; read-out: % visual injury, Obs, EPHHL, 140 g ae/ha)
30%: % visual injury, Obs [14]

CCCCC(CC)COC(=O)COc1ccc(Cl)cc1C (stereo not drawn) [MCPA EHE, 2-ethylhexyl (4-chloro-2-methylphenoxy)acetate]
80%: pest or weed control at 140 g/ha ([12]; read-out: % visual injury, Obs, IPOHE, MCPA EHE 140 g ae/ha)
10%: pest or weed control at 140 g/ha [20] | % visual injury, Obs ([15]; 280 g ae/ha)
20%: % visual injury Obs [23]
73%: % visual injury Obs ([10]; 280 g ae/ha alone, 20-22 d)
50%: % visual injury, Obs ([21]; 280 g ae/ha)
65%: pest or weed control at 280 g/ha ([3]; ABUTH, 280 g ae/ha) | % visual injury (Obs) ([6]; MCPA EHE 420 g ae/ha) | % visual injury, Obs ([6]; 420 g ae/ha)
75%: % visual injury, Obs ([5]; 280 g ae/ha) | pest or weed control at 280 g/ha ([17]; Chenopodium album, post-emergence, 280 g ae/ha alone, 20-22 d, read-out: % visual injury Obs) | % visual injury, Obs ([8]; 280 g ae/ha)
60%: % visual injury, Obs ([5]; MCPA EHE 140 g ae/ha)
0%: % visual injury, Obs (spring barley (HORVS); HORVS, 420 g ae/ha) | % visual injury (Obs) (spring barley (HORVS); MCPA EHE 420 g ae/ha) | % visual injury Obs (spring barley (HORVS); [25]) | pest or weed control at 140 g/ha ([3]; ABUTH, MCPA EHE 140 g ae/ha) | pest or weed control at 140 g/ha ([13]; read-out: % visual injury, Obs, EPHHL, MCPA EHE 140 g ae/ha) | % visual injury, Obs ([21]; MCPA EHE 140 g ae/ha) | % visual injury Obs (winter wheat (TRZAW) [22]) | % visual injury, Obs (maize (ZEAMX); 280 g ae/ha) | % visual injury, Obs (maize (ZEAMX); MCPA EHE 140 g ae/ha) | % visual injury Obs ([16]; 280 g ae/ha alone, 20-22 d) | pest or weed control at 280 g/ha ([16]; Bassia scoparia, post-emergence, KCHSC, 280 g ae/ha, read-out: % visual injury, Obs) | % visual injury (Obs) (winter wheat (TRZAW) [11]; MCPA EHE 420 g ae/ha) | % visual injury, Obs (winter wheat (TRZAW) [11]; 280 g ae/ha) | % visual injury, Obs (winter wheat (TRZAW) [11]; 420 g ae/ha) | % visual injury, Obs (common rice (ORYSA); 280 g ae/ha)
35%: pest or weed control at 280 g/ha ([19]; Amaranthus retroflexus, post-emergence, 280 g ae/ha alone, 20-22 d, read-out: % visual injury Obs) | plant injury at 140 g/ha [24]
3%: % visual injury, Obs (winter wheat (TRZAW) [11]; MCPA EHE 140 g ae/ha) | % visual injury Obs (winter wheat (TRZAW) [11]; [25]) | % visual injury, Obs (common rice (ORYSA); MCPA EHE 140 g ae/ha)
95%: plant injury at 280 g/ha [24]
70%: % visual injury, Obs ([6]; 280 g ae/ha) | % visual injury, Obs ([19]; MCPA EHE 140 g ae/ha)
